Measurements from patent US11999746B2, “Compounds” (GlaxoSmithKline Intellectual Property Development Limited, priority 2014, dated 2024).
Structures can show the parent of a compound that is named as a salt.

Columns and labels:
[1] = target: T1, recombinant human Lp-PLA2 (Homo sapiens, UniProt Q13093); assay: (1a) PED6 assay, recombinant human Lp-PLA2 (rhLp-PLA2); assay type: biochemical; conditions: Examples 1-167 and 413-430 were tested here, one experiment or average of multiple experiments, read-out: rhLp-PLA2 (pIC50) (converted)
T1 sequence (Q13093 22-441): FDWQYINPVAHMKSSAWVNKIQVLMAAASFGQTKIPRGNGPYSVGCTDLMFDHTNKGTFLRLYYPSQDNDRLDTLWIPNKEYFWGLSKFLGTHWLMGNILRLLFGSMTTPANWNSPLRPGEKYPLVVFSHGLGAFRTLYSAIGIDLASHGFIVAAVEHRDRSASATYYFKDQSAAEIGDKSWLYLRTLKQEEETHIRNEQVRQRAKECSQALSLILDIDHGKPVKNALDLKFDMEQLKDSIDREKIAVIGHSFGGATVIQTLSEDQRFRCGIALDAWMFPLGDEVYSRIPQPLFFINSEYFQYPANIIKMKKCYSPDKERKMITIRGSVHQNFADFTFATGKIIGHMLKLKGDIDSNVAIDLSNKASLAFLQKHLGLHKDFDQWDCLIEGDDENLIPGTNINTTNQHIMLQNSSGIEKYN
Excerpt: (1) Recombinant Human Lp-PLA2 Assays (rhLp-PLA2)
N-((6-(2,4-Dinitrophenyl)amino)-hexanoyl)-2-(4,4-difluoro-5,7-dimethyl-4-bora-3a,4a-diaza-s-indacene-3-pentanoyl)-1-hexadecanoyl-sn-glycero-3-phosphoethanolamine, triethylammonium salt (PED6) is a commercially available fluorescently-labeled phospholipid, which is commercially available from Invitrogene and Molecular Probes. There is a quenching […] and a Bodipy fluorescein (FL) group in the sn2 position. Upon cleavage with Lp-PLA2, the Bodipy FL group is liberated and then may result in an increase in fluorescence. Inhibitors of Lp-PLA2 therefore prevent this cleavage and no fluorescent increase is observed.
The PED6 assay was run as an unquenched 10 μL assay. The source plate containing the compounds to be tested was prepared by making 1:3 (by volume) serial dilution of the compounds within DMSO on 384-well microplate. Then, 0.01 μL of the compounds on compound source plate were transferred into 384 well Greiner 784076 (black) plates using ECHO liquid dispenser. 5 μL of recombinant human Lp-PLA2 enzyme (4 nM) rhLp-PLA2 in assay buffer of 50 mM HEPES, pH 7.4, 150 mM NaCl, 1 mM CHAPS) was added to each well of the plate. Plates were centrifuged for 10 sec at 500 rpm. After 30 minutes preincubation, 5 μL of substrate (4 μM PED6 [from 5 mM DMSO stock] in assay buffer of 50 mM HEPES, pH 7.4, 150 mM NaCl, 1 mM CHAPS) was added to 384 well Greiner 784076 (black) plates. Plates were centrifuged for 10 sec at 500 rpm. The plate was covered to protect it from light and incubated for 20 min at room temperature. The plates were read for fluorescence intensity at ex: 480/em: 540 using ViewLux microplate imager for Envision spectrofluroimeters. pIC50 data, curve and QC analysis was conducted by using XL fit module in Excel.

[2] = target: T2, Lp-PLA2 in human plasma (Homo sapiens, UniProt Q13093); assay: (3a) Lp-PLA2 human plasma Thio-PAF assay; assay type: biochemical; conditions: (3a) Thio-PAF assay, pooled human plasma; Examples 1-265 and 413-430 were tested here; read-out: pIC50 in the Lp-PLA2 human plasma assay (converted)
T2 construct: from tissue; host or cells: pooled human plasma
T2 sequence (Q13093 22-441): T1 sequence (Q13093 22-441)
Excerpt: (3) Lipoprotein-Associated Phospholipase A2 (Lp-PLA2) Human Plasma Assay
The human plasma assay utilizes a thioester analog of PAF (phosphatidylcholine), where hydrolysis yields to the formation of a phospholipid containing a free thiol group. The amount of thiol is quantitated continuously by reacting with CPM (7-diethylamino-3-(4′-maleimidylphenyl)-4-methylcoumarin), a maleimide which increases in fluoresence after Michael addition of thiols. This assay may detect the activity of Lp-PLA2 in human plasma, as determined by specific inhibition by Lp-PLA2 inhibitors.
The thio-PAF assay was run as a quenched 15 μL assay. Compounds source plate was prepared by making 1:3 (by volume) serial dilution of the compounds into pure DMSO on 384-well microplate. 0.01 μL of compounds on compound source plate were transferred to 384 well Greiner 784076 (black) low-volume plates by ECHO liquid dispenser. 8 μL pooled human plasma, which was previously aliquoted and frozen, was added. Plates were centrifuged for 10 sec at 500 rpm. After 30 minutes preincubation, 2 μL of substrate solution comprising 2.5 mM 2-thio-PAF [from ethanol stock], 32 μM CPM [from a DMSO stock] and 3.2 mM NEM (N-ethylmaleimide) [made fresh daily in DMSO] in assay buffer of 50 mM HEPES, pH 7.4, 150 mM NaCl, 1 mM CHAPS was added to 384 well Greiner 784076 (black) low-volume plates by BRAVO liquid handling station. After 2 mins, reaction was quenched with 5 μL of 5% aqueous trifluoroacetic acid (TFA). Plates were covered to protect from light and incubated for 40 min at room temperature. Plates were read at ex: 380/em: 485 using Envision microplate reader. PIC50 data, curve and QC analysis were conducted by using XLFit module in Excel.

| SMILES | IC50 [1] | IC50 [2] |
| --- | --- | --- |
| O=c1nc(OCc2cc(F)c(Oc3ccnc(C(F)(F)F)c3)c(F)c2)cc2n1CC1OCCCN21 (single isomer, unassigned) [Example E162, 7-((3,5-difluoro-4-((2-(trifluoromethyl)pyridin-4-yl)oxy)benzyl)oxy)-3,4,11,11a-tetrahydropyrimido[6′,1′:2,3]imidazo[5,1-b][1,3]oxazin-9(2H)-one] | ≤ 1 nM | ≤ 100 nM |
| O=c1nc(OCc2cc(F)c(Oc3ccnc(C(F)(F)F)c3)c(F)c2)cc2n1CC1OCCCN21 (single isomer, unassigned) [Example E163, 7-((3,5-difluoro-4-((2-(trifluoromethyl)pyridin-4-yl)oxy)benzyl)oxy)-3,4,11,11a-tetrahydropyrimido[6′,1′:2,3]imidazo[5,1-b][1,3]oxazin-9(2H)-one] | ≤ 100 nM | ≤ 10000 nM |
| O=c1nc(OCc2cc(F)c(Oc3ccnc(C(F)(F)F)c3)c(F)c2)cc2n1CC1OCCN21 (single isomer, unassigned) [Example E164, 6-((3,5-difluoro-4-((2-(trifluoromethyl)pyridin-4-yl)oxy)benzyl)oxy)-10,10a-dihydro-2H-oxazolo[3′,2′:3,4]imidazo[1,2-c]pyrimidin-8(3H)-one] | ≤ 1 nM | ≤ 100 nM |
| O=c1nc(OCc2cc(F)c(Oc3ccnc(C(F)(F)F)c3)c(F)c2)cc2n1CC1OCCN21 (single isomer, unassigned) [Example E165, 6-((3,5-difluoro-4-((2-(trifluoromethyl)pyridin-4-yl)oxy)benzyl)oxy)-10,10a-dihydro-2H-oxazolo[3′,2′:3,4]imidazo[1,2-c]pyrimidin-8(3H)-one] | ≤ 100 nM | ≤ 100 nM |
| CN1c2cc(OCc3cccc(F)c3)nc(=O)n2CC12CCC2 [Example 413] | ≤ 100 nM | ≤ 10000 nM |
| CN1c2cc(OCc3cc(F)c(F)c(F)c3)nc(=O)n2CC12CCCC2 [Example 414, 1′-methyl-7′-((3,4,5-trifluorobenzyl)oxy)-1′H-spiro[cyclopentane-1,2′-imidazo[1,2-c]pyrimidin]-5′(3′H)-one] | ≤ 100 nM | ≤ 100 nM |
| CN1c2cc(OCc3cc(F)c(F)cc3F)nc(=O)n2CC12CCCC2 [Example 415, 1-methyl-7′-((2,4,5-trifluorobenzyl)oxy)-1′H-spiro[cyclopentane-1,2′-imidazo[1,2-c]pyrimidin]-5′(3′H)-one] | ≤ 100 nM | ≤ 10000 nM |
| CN1c2cc(OCc3ccc(F)cc3F)nc(=O)n2CC12CCC2 [Example 416, 7′4(2,4-difluorobenzyhoxy)-1-methyl-1H-spiro[cyclobutane-1,2′-imidazo[1,2-c]pyrimidin]-5′(3′H)-one] | ≤ 100 nM | ≤ 10000 nM |
| CN1c2cc(OCc3cccc(F)c3)nc(=O)n2CC12CCCCC2 [Example 417] | ≤ 100 nM | ≤ 10000 nM |
| CN1c2cc(OCc3cccc(F)c3)nc(=O)n2CC12CCCC2 [Example 418] | ≤ 100 nM | ≤ 100 nM |
| CN1c2cc(OCc3ccc(F)cc3F)nc(=O)n2CC12CCCC2 [Example 419, 7′4(2,4-difluorobenzyhoxy)-1-methyl-1H-spiro[cyclopentane-1,2′-imidazo[1,2-c]pyrimidin]-5′(3′H)-one] | ≤ 100 nM | ≤ 10000 nM |
| CN1c2cc(OCc3cccc(F)c3F)nc(=O)n2CC12CCC2 [Example 420, 7′4(2,3-difluorobenzyhoxy)-1-methyl-1H-spiro[cyclobutane-1,2′-imidazo[1,2-c]pyrimidin]-5′(3′H)-one] | ≤ 100 nM | ≤ 10000 nM |
| CN1c2cc(OCc3cc(F)c(F)c(F)c3)nc(=O)n2CC12CCCCC2 [Example 422, 1′-methyl-7′-((3,4,5-trifluorobenzyl)oxy)-1′H-spiro[cyclohexane-1,2′-imidazo[1,2-c]pyrimidin]-5′(3′H)-one] | ≤ 100 nM | ≤ 10000 nM |
| CN1c2cc(OCc3cc(F)c(F)c(F)c3)nc(=O)n2CC12CCC2 [Example 423, 1′-methyl-7′-((3,4,5-trifluorobenzyl)oxy)-1′H-spiro[cyclobutane-1,2′-imidazo[1,2-c]pyrimidin]-5′(3′H)-one] | ≤ 100 nM | ≤ 100 nM |
| CN1c2cc(OCc3cccc(F)c3F)nc(=O)n2CC12CCCCC2 [Example 425, 7′4(2,3-difluorobenzyhoxy)-1-methyl-1H-spiro[cyclohexane-1,2′-imidazo[1,2-c]pyrimidin]-5′(3′H)-one] | ≤ 100 nM | ≤ 10000 nM |
| CN1c2cc(OCc3cccc(F)c3F)nc(=O)n2CC12CCCC2 [Example 426, 7′4(2,3-difluorobenzyhoxy)-1-methyl-1H-spiro[cyclopentane-1,2′-imidazo[1,2-c]pyrimidin]-5′(3′H)-one] | ≤ 100 nM | ≤ 100 nM |
| CN1c2cc(OCc3ccc(F)cc3F)nc(=O)n2CC12CCCCC2 [Example 427, 7′4(2,4-difluorobenzyhoxy)-1-methyl-1H-spiro[cyclohexane-1,2′-imidazo[1,2-c]pyrimidin]-5′(3′H)-one] | ≤ 100 nM | ≤ 10000 nM |
| CN1c2cc(OCc3cc(F)c(F)cc3F)nc(=O)n2CC12CCCCC2 [Example 428, 1-methyl-7′-((2,4,5-trifluorobenzyl)oxy)-1′H-spiro[cyclohexane-1,2′-imidazo[1,2-c]pyrimidin]-5′(3′H)-one] | ≤ 100 nM | ≤ 10000 nM |
| CN1c2cc(OCc3cc(F)c(F)cc3F)nc(=O)n2CC12CCC2 [Example 429, 1-methyl-7′-((2,4,5-trifluorobenzyl)oxy)-1′H-spiro[cyclobutane-1,2′-imidazo[1,2-c]pyrimidin]-5′(3′H)-one] | ≤ 100 nM | ≤ 10000 nM |
| O=c1nc(OCc2ccc(F)cc2)cc2n1CC1CCCCN21 (stereo not shown) [Example E1, 3-((4-Fluorobenzyl)oxy)-6,7,8,9,9a,10-hexahydro-1H-pyrido[1,2′:3,4]imidazo[1,2-c] pyrimidin-1-one trifluoroacetate salt] | ≤ 100 nM | ≤ 10000 nM |
| O=c1nc(OCc2cc(F)c(F)c(F)c2)cc2n1CC1CCCCN21 (stereo not shown) [Example E2, 3-((3,4,5-Trifluorobenzyl)oxy)-6,7,8,9,9a,10-hexahydro-1H-pyrido[1′,2′:3,4]imidazo[1,2-c] pyrimidin-1-one] | ≤ 100 nM | ≤ 100 nM |
| O=c1nc(OCc2cc(F)cc(F)c2)cc2n1CC1CCCCN21 (stereo not shown) [Example E3, 3-((3,5-Difluorobenzyl)oxy)-6,7,8,9,9a,10-hexahydro-1H-pyrido[1′,2′:3,4]imidazo-[1,2-c] pyrimidin-1-one] | ≤ 100 nM | ≤ 10000 nM |
| O=c1nc(OCc2ccc(F)c(F)c2)cc2n1CC1CCCCN21 (stereo not shown) [Example E5, 3-((3,4-Difluorobenzyl)oxy)-6,7,8,9,9a,10-hexahydro-1H-pyrido[1′,2′:3,4]imidazo[1,2-c] pyrimidin-1-one] | ≤ 100 nM | ≤ 100 nM |
